Measurements from patent US11390589B2, “Herbicidally active substituted phenylpyrimidines” (Bayer Aktiengesellschaft, priority 2018, dated 2022).

Key:
Assay type in all cases: in vivo
harmful plants [1] = assay: Method E: herbicidal early post-emergence action, summary in text; settings: applied in early post-emergence, table E (1900 g/ha)
Description: (§1) Method E: Herbicidal Early Post-Emergence Action Seeds of monocotyledonous or dicotyledonous weed plants are placed in 96-well microtiter plates in quartz sand and grown in a climatized chamber under controlled growth conditions. 5 to 7 days after sowing, the test plants are treated at the cotyledon stage. The compounds of the invention, formulated in the form of emulsion concentrates (EC), are applied with a water application rate of the equivalent of 2200 liters per hectare. After the test plants had been left to stand in the climatized chamber for 9 to 12 days under optimum growth conditions, the effect of the preparations is scored visually in comparison to untreated controls. For example, 100% activity=the plants have died, 0% activity=like control plants.

Stellaria media [2] = assay: Method E: herbicidal early post-emergence action; settings: cotyledon stage, 96-well microtiter plates, scored visually after 9 to 12 days
Description: as §1

Lolium perenne = assay: Method E: herbicidal early post-emergence action; settings: cotyledon stage, 96-well microtiter plates, scored visually after 9 to 12 days
Description: as §1

Poa annua [3] = assay: Method E: herbicidal early post-emergence action; settings: cotyledon stage, 96-well microtiter plates, scored visually after 9 to 12 days
Description: as §1

Matricaria chamonilla = assay: Method E: herbicidal early post-emergence action; settings: cotyledon stage, 96-well microtiter plates, scored visually after 9 to 12 days
Description: as §1

Agrostis tenuis = assay: Method E: herbicidal early post-emergence action; settings: cotyledon stage, 96-well microtiter plates, scored visually after 9 to 12 days
Description: as §1

Stellaria media [4] = assay: Method C: herbicidal post-emergence action; settings: rated visually after about 3 weeks
Description: (§2) Method C: Herbicidal Post-Emergence Action Seeds of mono- and dicotyledonous weed plants are placed in plastic pots in sandy loam soil (doubly sown with one species each of mono- or dicotyledonous weed plants per pot), covered with soil and cultivated in a greenhouse under controlled growth conditions. 2 to 3 weeks after sowing, the test plants are treated at the one-leaf stage. The compounds of the invention, formulated in the form of wettable powders (WP) or as emulsion concentrates (EC), are applied to the green parts of the plants as aqueous suspension or emulsion with addition of 0.5% additive at a water application rate equivalent to 600 liters per hectare. After the test plants have been kept in the greenhouse under optimum growth conditions for about 3 weeks, the activity of the preparations is rated visually in comparison to untreated controls. For example, 100% activity=the plants have died, 0% activity=like control plants.

Poa annua [5] = assay: Method C: herbicidal post-emergence action; settings: rated visually after about 3 weeks
Description: as §2

Lolium rigidum [6] = assay: Method C: herbicidal post-emergence action; settings: rated visually after about 3 weeks
Description: as §2

Echinochloa crus-galli [7] = assay: Method C: herbicidal post-emergence action; settings: rated visually after about 3 weeks
Description: as §2

harmful plants [8] = assay: Method C: herbicidal post-emergence action, summary in text; settings: applied post-emergence, table C (1280 g/ha)
Description: as §2

harmful plants [9] = assay: Method D: herbicidal pre-emergence action, summary in text; settings: applied pre-emergence, table D (1280 g/ha)
From the text: (§3) Method D: Herbicidal Pre-Emergence Action Seeds of mono- and dicotyledonous weed plants are placed in plastic pots in sandy loam soil (doubly sown with one species each of mono- or dicotyledonous weed plants per pot) and covered with soil. The compounds of the invention, formulated in the form of wettable powders (WP) or as emulsion concentrates (EC), are then applied onto the surface of the covering soil as aqueous suspension or emulsion with addition of 0.5% additive at a water application rate of 600 liters per hectare (converted). After the treatment, the pots are placed in a greenhouse and kept under good growth conditions for the trial plants. After about 3 weeks, the effect of the preparations is scored visually in comparison with untreated controls as percentages. For example, 100% activity=the plants have died, 0% activity=like control plants.

Stellaria media [10] = assay: Method D: herbicidal pre-emergence action; settings: scored visually after about 3 weeks
From the text: as §3

Setaria viridis = assay: Method D: herbicidal pre-emergence action; settings: scored visually after about 3 weeks
From the text: as §3

Poa annua [11] = assay: Method D: herbicidal pre-emergence action; settings: scored visually after about 3 weeks
From the text: as §3

Abufilon theophrast [12] = assay: Method D: herbicidal pre-emergence action; settings: scored visually after about 3 weeks
From the text: as §3

Lolium rigidum [13] = assay: Method D: herbicidal pre-emergence action; settings: scored visually after about 3 weeks
From the text: as §3

Matricaria inodora = assay: Method D: herbicidal pre-emergence action; settings: scored visually after about 3 weeks
From the text: as §3

Echinochloa crus-galli [14] = assay: Method D: herbicidal pre-emergence action; settings: scored visually after about 3 weeks
From the text: as §3

harmful plants [15] = assay: Method B: pre-emergence herbicidal action, summary in text; settings: applied pre-emergence, table B (320 g/ha)
From the text: (§4) Method B: Pre-Emergence Herbicidal Action and Crop Plant Compatibility
as §3, with “Seeds” for “Method D: Herbicidal Pre-Emergence Action Seeds”, “monocotyledonous” for “mono-”, “weed plants and crop” for “weed”, “plastic or organic planting” for “plastic”, “pots” for “pots in sandy loam soil (doubly sown with one species each of mono- or dicotyledonous weed plants per pot)”, “[…]” for “600 liters per hectare”

harmful plants [16] = assay: Method A: post-emergence herbicidal action, summary in text; settings: applied post-emergence, table A (320 g/ha)
Description: (§5) Method A: Post-Emergence Herbicidal Action and Crop Plant Compatibility
(§6) Seeds of monocotyledonous and dicotyledonous weeds and crop plants are placed in sandy loam in plastic or organic planting pots, covered with soil and cultivated in a greenhouse under controlled growth conditions. 2 to 3 weeks after sowing, the test plants are treated at the one-leaf stage. The compounds of the invention, formulated in the form of wettable powders (WP) or as emulsion concentrates (EC), are then sprayed onto the green parts of the plants as aqueous suspension or emulsion with addition of 0.5% additive at a water application rate of […] (converted). After the test plants have been kept in the greenhouse under optimum growth conditions for about 3 weeks, the activity of the preparations is rated visually in comparison to untreated controls. For example, 100% activity=the plants have died, 0% activity=like control plants.

Stellaria media [17] = assay: Method A: post-emergence herbicidal action; settings: rated visually after about 3 weeks
Description: as §5, §6

Hordeum murinum [18] = assay: Method A: post-emergence herbicidal action; settings: rated visually after about 3 weeks
Description: as §5, §6

Lolium rigidum [19] = assay: Method A: post-emergence herbicidal action; settings: rated visually after about 3 weeks
Description: as §5, §6

Avena fatua [20] = assay: Method A: post-emergence herbicidal action; settings: rated visually after about 3 weeks
Description: as §5, §6

Polygonum convolvulus [21] = assay: Method A: post-emergence herbicidal action; settings: rated visually after about 3 weeks
Description: as §5, §6

Echinochloa crus-galli [22] = assay: Method A: post-emergence herbicidal action; settings: rated visually after about 3 weeks
Description: as §5, §6

Alopecurus myosuroides [23] = assay: Method A: post-emergence herbicidal action; settings: rated visually after about 3 weeks
Description: as §5, §6

Stellaria media [24] = assay: Method B: pre-emergence herbicidal action; settings: scored visually after about 3 weeks
From the text: as §4
as §3, with “Seeds” for “Method D: Herbicidal Pre-Emergence Action Seeds”, “monocotyledonous” for “mono-”, “weed plants and crop” for “weed”, “plastic or organic planting” for “plastic”, “pots” for “pots in sandy loam soil (doubly sown with one species each of mono- or dicotyledonous weed plants per pot)”, “[…]” for “600 liters per hectare”

Hordeum murinum [25] = assay: Method B: pre-emergence herbicidal action; settings: scored visually after about 3 weeks
From the text: as §4
as §3, with “Seeds” for “Method D: Herbicidal Pre-Emergence Action Seeds”, “monocotyledonous” for “mono-”, “weed plants and crop” for “weed”, “plastic or organic planting” for “plastic”, “pots” for “pots in sandy loam soil (doubly sown with one species each of mono- or dicotyledonous weed plants per pot)”, “[…]” for “600 liters per hectare”

Abufilon theophrast [26] = assay: Method B: pre-emergence herbicidal action; settings: scored visually after about 3 weeks
From the text: as §4
as §3, with “Seeds” for “Method D: Herbicidal Pre-Emergence Action Seeds”, “monocotyledonous” for “mono-”, “weed plants and crop” for “weed”, “plastic or organic planting” for “plastic”, “pots” for “pots in sandy loam soil (doubly sown with one species each of mono- or dicotyledonous weed plants per pot)”, “[…]” for “600 liters per hectare”

Lolium rigidum [27] = assay: Method B: pre-emergence herbicidal action; settings: scored visually after about 3 weeks
From the text: as §4
as §3, with “Seeds” for “Method D: Herbicidal Pre-Emergence Action Seeds”, “monocotyledonous” for “mono-”, “weed plants and crop” for “weed”, “plastic or organic planting” for “plastic”, “pots” for “pots in sandy loam soil (doubly sown with one species each of mono- or dicotyledonous weed plants per pot)”, “[…]” for “600 liters per hectare”

Digitaria sanguinalis = assay: Method B: pre-emergence herbicidal action; settings: scored visually after about 3 weeks
From the text: as §4
as §3, with “Seeds” for “Method D: Herbicidal Pre-Emergence Action Seeds”, “monocotyledonous” for “mono-”, “weed plants and crop” for “weed”, “plastic or organic planting” for “plastic”, “pots” for “pots in sandy loam soil (doubly sown with one species each of mono- or dicotyledonous weed plants per pot)”, “[…]” for “600 liters per hectare”

Avena fatua [28] = assay: Method B: pre-emergence herbicidal action; settings: scored visually after about 3 weeks
From the text: as §4
as §3, with “Seeds” for “Method D: Herbicidal Pre-Emergence Action Seeds”, “monocotyledonous” for “mono-”, “weed plants and crop” for “weed”, “plastic or organic planting” for “plastic”, “pots” for “pots in sandy loam soil (doubly sown with one species each of mono- or dicotyledonous weed plants per pot)”, “[…]” for “600 liters per hectare”

Polygonum convolvulus [29] = assay: Method B: pre-emergence herbicidal action; settings: scored visually after about 3 weeks
From the text: as §4
as §3, with “Seeds” for “Method D: Herbicidal Pre-Emergence Action Seeds”, “monocotyledonous” for “mono-”, “weed plants and crop” for “weed”, “plastic or organic planting” for “plastic”, “pots” for “pots in sandy loam soil (doubly sown with one species each of mono- or dicotyledonous weed plants per pot)”, “[…]” for “600 liters per hectare”

Echinochloa crus-galli [30] = assay: Method B: pre-emergence herbicidal action; settings: scored visually after about 3 weeks
From the text: as §4
as §3, with “Seeds” for “Method D: Herbicidal Pre-Emergence Action Seeds”, “monocotyledonous” for “mono-”, “weed plants and crop” for “weed”, “plastic or organic planting” for “plastic”, “pots” for “pots in sandy loam soil (doubly sown with one species each of mono- or dicotyledonous weed plants per pot)”, “[…]” for “600 liters per hectare”

Alopecurus myosuroides [31] = assay: Method B: pre-emergence herbicidal action; settings: scored visually after about 3 weeks
From the text: as §4
as §3, with “Seeds” for “Method D: Herbicidal Pre-Emergence Action Seeds”, “monocotyledonous” for “mono-”, “weed plants and crop” for “weed”, “plastic or organic planting” for “plastic”, “pots” for “pots in sandy loam soil (doubly sown with one species each of mono- or dicotyledonous weed plants per pot)”, “[…]” for “600 liters per hectare”

CN(NC(=O)C(=O)Cc1nc(C2CC2)ncc1-c1ccccc1Cl)C(=O)OC(C)(C)C [IV-137, tert-butyl 2-{3-[5-(2-chlorophenyl)-2-cyclopropylpyrimidin-4-yl]-2-oxopropanoyl}-1-methylhydrazinecarboxylate]
herbicidal efficacy against harmful plants (harmful plants [1]): very good herbicidal efficacy
Early post-emergence action at 1900 g/ha STEME (Stellaria media [2]): 100%
Early post-emergence action at 1900 g/ha LOLPE (Lolium perenne): 80%
Early post-emergence action at 1900 g/ha POAAN (Poa annua [3]): 80%
Early post-emergence action at 1900 g/ha MATCH (Matricaria chamonilla): 80%
Early post-emergence action at 1900 g/ha AGSTE (Agrostis tenuis): 100%
Post-emergence action at 1280 g/ha STEME (Stellaria media [4]): 100%
Post-emergence action at 1280 g/ha POAAN (Poa annua [5]): 100%
Post-emergence action at 1280 g/ha LOLRI (Lolium rigidum [6]): 100%
Post-emergence action at 1280 g/ha ECHCG (Echinochloa crus-galli [7]): 100%
herbicidal efficacy against harmful plants (harmful plants [8]): very good herbicidal efficacy
herbicidal efficacy against harmful plants (harmful plants [9]): very good herbicidal efficacy
Pre-emergence action at 1280 g/ha STEME (Stellaria media [10]): 100%
Pre-emergence action at 1280 g/ha SETVI (Setaria viridis): 90%
Pre-emergence action at 1280 g/ha POAAN (Poa annua [11]): 100%
Pre-emergence action at 1280 g/ha ABUTH (Abufilon theophrast [12]): 90%
Pre-emergence action at 1280 g/ha LOLRI (Lolium rigidum [13]): 90%
Pre-emergence action at 1280 g/ha MATIN (Matricaria inodora): 90%
Pre-emergence action at 1280 g/ha ECHCG (Echinochloa crus-galli [14]): 90%

CN(C)C(=O)C(=O)Cc1nc(C2CC2)ncc1-c1ccccc1Cl [Example I-139, 3-[5-(2-chlorophenyl)-2-cyclopropylpyrimidin-4-yl]-N,N-dimethyl-2-oxopropanamide]
Early post-emergence action at 1900 g/ha STEME (Stellaria media [2]): 100%
Early post-emergence action at 1900 g/ha LOLPE (Lolium perenne): 80%
Early post-emergence action at 1900 g/ha POAAN (Poa annua [3]): 100%
Early post-emergence action at 1900 g/ha MATCH (Matricaria chamonilla): 100%
Early post-emergence action at 1900 g/ha AGSTE (Agrostis tenuis): 100%
herbicidal efficacy against harmful plants (harmful plants [15]): very good herbicidal efficacy
herbicidal efficacy against harmful plants (harmful plants [16]): very good herbicidal efficacy
Post-emergence action at 320 g/ha STEME (Stellaria media [17]): 80%
Post-emergence action at 320 g/ha HORMU (Hordeum murinum [18]): 90%
Post-emergence action at 320 g/ha LOLRI (Lolium rigidum [19]): 100%
Post-emergence action at 320 g/ha AVEFA (Avena fatua [20]): 90%
Post-emergence action at 320 g/ha POLCO (Polygonum convolvulus [21]): 90%
Post-emergence action at 320 g/ha ECHCG (Echinochloa crus-galli [22]): 90%
Post-emergence action at 320 g/ha ALOMY (Alopecurus myosuroides [23]): 100%
Pre-emergence action at 320 g/ha STEME (Stellaria media [24]): 100%
Pre-emergence action at 320 g/ha HORMU (Hordeum murinum [25]): 90%
Pre-emergence action at 320 g/ha ABUTH (Abufilon theophrast [26]): 80%
Pre-emergence action at 320 g/ha LOLRI (Lolium rigidum [27]): 100%
Pre-emergence action at 320 g/ha DIGSA (Digitaria sanguinalis): 100%
Pre-emergence action at 320 g/ha AVEFA (Avena fatua [28]): 80%
Pre-emergence action at 320 g/ha POLCO (Polygonum convolvulus [29]): 90%
Pre-emergence action at 320 g/ha ECHCG (Echinochloa crus-galli [30]): 100%
Pre-emergence action at 320 g/ha ALOMY (Alopecurus myosuroides [31]): 100%
